From patent US20260294874A1, “COMPOSITIONS COMPRISING MODULATORS OF RIBONUCLEOPROTEIN GRANULE FORMATION AND DISSOLUTION AND METHODS OF USE THEREOF” (University of Virginia Patent Foundation, priority 2023, published 2026)
Entries after “also recorded” stand apart in the source; their conditions may differ.

Assays:
[1] = system: G3BP1 WT-rescued G3BP KO cells; test: SG formation in G3BP KO U20S cells rescued with G3BP1 WT; assay type: cell-based; settings: 2 h; for inhibition at 25 µM: G3BP1 WT-rescued G3BP KO U20S cells, read-out: reduction in SGs/cell; for effect on SG formation (in words): G3BP1 WT-rescued G3BP KO cells, 25 μM
Experimental: G3BP KO and rescue studies. U20S G3BP1/2 double knockout (G3BP KO) cell-line was a kind gift from the C. Brangwynne lab (Princeton University, Princeton, New Jersey, United States of America) and generated as previously described in Kedersha et al., 2016. G3BP KO cells were seeded at 9.0×10^4 in a 24-well plate with 12-mm glass coverslips. Next day, the cells were transfected with […] vectors with 1 μg/mL tetracycline and LIPOFECTAMINE™ 3000 brand transfection reagent according to the manufacturer's protocol (Thermo Fisher Scientific). 20 hours post-transfection, the cells were treated with 25 μM SuTEx probes for 2 hours in DMEM medium without FBS. The cells were then treated with 75 μM NaAsO2 for 30 minutes and fixed with 3% paraformaldehyde in PBS for 15 minutes at RT and washed with PBS twice. The same protocols for IF of HeLa cells and quantification of G3BP1-positive SGs described above were followed thereafter.
To determine whether the cell biological effects mediated by HHS-166 were Y40-dependent, we expressed recombinant G3BP1 WT or Y40 mutant in previously established G3BP1/2 double knockout U20S (G3BP KO) cells (Kedersha et al., 2016; Sanders et al., 2020) and evaluated the resulting effects on SG response to [COMPOUND LEFT OUT]. We compared SG response of G3BP KO cells expressing a G3BP1 Y40 covalent binding- and phospho-deficient mutant (Y40F) with a phosphomimetic counterpart (Y40E). G3BP KO cells were previously shown to be deficient in [COMPOUND LEFT OUT]-induced SG formation (Sanders et al., 2020). Expression of G3BP1 WT rescued this deficiency and restored cellular SG response to [COMPOUND LEFT OUT] [1.6 vs 11 SGs/cell in (−)[COMPOUND LEFT OUT] vs (+)[COMPOUND LEFT OUT], respectively; FIGS. 6A and 6B].

[2] = Lipophilic efficiency calculation (cLogP from ChemDraw); settings: from IC50 (AHL-030) or EC50 (HHS-166) and cLogP
Experimental: Lipophilic efficiency calculations for AHL-030 and HHS-166. Lipophilic efficiency was calculated as previously described in Leeson & Springthorpe, 2007 using IC50 (AHL-030) and EC50 (HHS-166) potency values from experiments and c Log P values from ChemDraw (Version 20.0.0.41 on a Windows PC): […]

[3] = system: P-bodies (EDC4 foci) in HEK293T cells; test: Immunofluorescence phenotypic screen for P-bodies (α-EDC4) in glucose-deprived HEK293T cells; assay type: cell-based; settings: glucose-deprived HEK293T cells, 25 μM, 2 h
Experimental: SuTEx compound treatments. Prior to treatments, cells were washed twice with warm phosphate-buffered saline (PBS) and exchanged with serum-free DMEM (supplemented with 1% L-glutamine) for at least 30 minutes at 37° C. with 5% CO2. Compounds were then added as 1000×DMSO stocks (10 μL for 10 cm dishes and 3 μL for 6-well dishes), plates were mixed gently, and cells were incubated for two hours. All compounds were thoroughly vortexed and sonicated for five minutes prior to addition to ensure complete solvation. For microscopy experiments, cultures were seeded at 150,000 cells in 3 mL of DMEM in 6-well THERMO SCIENTIFIC™ BIOLITE™ brand microwell plates (Catalog No. 12556004; Thermo Fisher Scientific Inc., Waltham, Massachusetts. United States of America). For collection, media was aspirated, and cells were washed once with cold PBS before scraping from plates. Cells were centrifuged at 500×g at 4° C. for 5 minutes and supernatant was removed. Cell pellets were resuspended in cold PBS (1 mL) and centrifuged at 1,400×g at 4° C. for 3 minutes. Supernatant was again removed, and pellets were then snap-frozen in liquid nitrogen and stored at −80° C. until needed.
Immunofluorescence. Immunofluorescence (IF) of HEK293T cells was performed as previously described in Ciancone et al., 2022. HeLa cells were seeded at 9.0×10^4 in a 24-well plate with 12-mm glass coverslips. The next day, the cells were treated with 25 μM SuTEx probe for 2 hours in DMEM medium without FBS. The cells were then treated with 75 μM NaAsO2 for 30 minutes and fixed with 3% paraformaldehyde in PBS for 15 minutes at room temperature (RT) and washed with PBS twice. The fixed cells were permeabilized with PBST (0.1% Triton X-100) for 15 minutes at room temperature and blocked with 5% goat serum in PBST for 30 minutes at RT. The cells were incubated with anti-G3BP1 antibody H-10 (Catalog No. sc-365338 at 1:200 dilution; Santa Cruz Biotechnology, Inc., Dallas, Texas, United States of America) for 2 hours at RT and washed with PBST (0.1% Tween-20) for 5 minutes three times. Next, cells were incubated with goat anti-mouse Alexa 594 antibody (Catalog No. 115-585-003 at 1:800 dilution; Jackson ImmunoResearch, West Grove, Pennsylvania, United States of America) for 30 minutes at RT. The cells were washed twice with PBST, stained with Hoechst 33342 (Catalog No. H3570 at […]; Thermo Fischer Scientific) in PBST for 5 minutes, and washed with PBS twice for 5 minutes. The coverslips were mounted in PROLONG™ Gold AntiFade Mountant (Catalog No. P36930, Thermo Fisher Scientific) and imaged using NIS Elements AR software and a Nikon Eclipse Ti microscope equipped with a ×100 objective and CMOS camera. […] A CellProfiler pipeline was developed to quantify the number of stress granules under each condition. Briefly, cells were recognized as blue^+ (nuclei) red^+ (G3BP1) objects, and the red^+ granules that meet the shape and size threshold were identified and counted. Cells on the border of linages were excluded from the analysis for more accurate quantification.
Data Analysis—Microscopy. All slides were blinded for imaging. Leica SP5X images were analyzed using Fiji (ImageJ). Custom macros were written for analysis and can be obtained upon request. To elaborate, images were split into channels based on the different laser wavelengths measured. Image stacks were then combined using ‘Z-Project’ with an average intensity parameter and a threshold was applied to exclude noise based on the negative control (no EDC4 antibody). The ‘Analyze Particles’ function was used with relevant size and circularity constraints (0.85-1.00) to count the number of foci, with total PBs having a diameter of >150 nm, and large PBs>450 nm. The number of foci was normalized to the number of cells (defined by a DAPI stain count) in each linage, and the number of foci per cell was averaged across technical replicates. Every sample had at least two technical replicates and two independent biological replicates. […]

Row | LipE (lipophilic efficiency) [2] | SMILES | inhibition at 25 µM [1] [%] | effect on SG formation (in words) [1] | effect on PBs (in words) [3]
1 | – | N#Cc1ccc(S(=O)(=O)n2cc(-c3cccc(Cl)c3)nn2)cc1 [EKT231, 4-((4-(3-Chlorophenyl)-1H-1,2,3-triazol-1-yl)sulfonyl)benzonitrile] | 9 to 13 | not observed; also recorded: inactive | –
2 | 3 | COc1ccc(S(=O)(=O)n2cc(C3CCCCC3)nn2)cc1 [HHS-166, 4-Cyclohexyl-1-((4-methoxyphenyl)sulfonyl)-111-1,2,3-triazole] | 57 | statistically significant decrease in SGs; also recorded: blocked; also recorded: statistically significant decreases in SG formation | –
3 | 7 | COc1ccc(S(=O)(=O)n2cc(CS(C)(=O)=O)nn2)cc1 [AHL-030, 1-((4-Methoxyphenyl)sulfonyl)-4-((methylsulfonyl)methyl)-1H-1,2,3-triazole] | – | – | PB-inhibitory; also recorded: modestly inhibiting PBs; also recorded: decreased PBs
4 | – | CC(C)c1cc(C(C)C)c(S(=O)(=O)n2cc(-c3ccc(C(F)(F)F)cc3)nn2)c(C(C)C)c1 [AHL-003] | – | – | block both types of RNP granules; also recorded: inhibited
